Experimental data reported in paper PMC7367369, “A small library of chalcones induce liver cancer cell death through Akt phosphorylation inhibition” (Scientific Reports, 2020).
Where two headings read alike, the source gives them in different places.

Experiments:
Format in all cases: cell-based, human
Huh7 = assay: NCI-60 sulforhodamine B (SRB) cytotoxicity assay, Huh7; details: Homo sapiens, read-out: IC50 Huh7
Description: (§1) The bioactivities of the synthesized chalcones were assessed on human liver cancer cell lines and on DPSCs with NCI-SRB assay in vitro. DPSCs used to asses the bioactivity of chalcones on untransformed control cells with the potential of hepatic lineage. […] We also included 5-Fluorouracil which is used in clinics for gastrointestinal cancers and Sorafenib. All results were normalized to DMSO negative control measurements. The experiment was performed in triplicate.
(§2) Well differentiated human primary liver cancer cell lines Huh7, HepG2 and Hep3B, and poorly differentiated Mahlavu, FOCUS and SNU475 HCC cells were cultured in Dulbecco’s Modified Eagle’s Standard (DMEM) medium supplemented with 10% Fetal Bovine Serum (FBS), 100 units/mL penicillin and 100 µg/mL streptomycin (Gibco, Invitrogen, Carlsbad, CA, USA). 0.1 mM nonessential amino acids (NEAA) which are specific to HCC cell lines also added to culture media. Cells were cultured in a 5% CO2 incubator at 37^∘C
(§3) Primary liver cancer cells Huh7, HepG2, Hep3B, Mahlavu, FOCUS, Snu475 along with hepatic progenitor Dental pulp stem cells were seeded into 96-well plates (1,000–3,000 HCC cell/well and 10,000 cells DPSC/well ) for 24 h. The cells were then treated with increasing concentrations of the chalcones ( 2.5-40μM ). DMSO (AppliChem Biochemica, Darmstadt, Germany) was used as negative control. The growth has stopped at the end of 72 h by fixing cold with 10% (v/v) trichloroacetic acid (Merck, Schuchardt, Germany). Cells were then stained with 0.4% (m/v) of sulforhodamine (Sigma-Aldrich, St. Louis, USA) in 1% acetic acid solution. The absorbency values were acquired at 515 nm. All experiments were done in triplicate.

HepG2 = assay: NCI-60 sulforhodamine B (SRB) cytotoxicity assay, HepG2; details: Homo sapiens, HepG2; SRB, 72 h, 2.5–40 μM, triplicate; read-out: IC50 HepG2
Description: as §1, §2
as §3, with “The absorbency values were acquired at 515 nm.” left out

Hep3B = assay: NCI-60 sulforhodamine B (SRB) cytotoxicity assay, Hep3B; details: Homo sapiens, Hep3B; SRB, 72 h, 2.5–40 μM, triplicate; read-out: IC50 Hep3B
Description: as §1, §2
as §3, with “The absorbency values were acquired at 515 nm.” left out

Mahlavu = assay: NCI-60 sulforhodamine B (SRB) cytotoxicity assay, Mahlavu; details: Homo sapiens, Mahlavu; SRB, 72 h, 2.5–40 μM, triplicate; read-out: IC50 Mahlavu
Description: as §1, §2
as §3, with “The absorbency values were acquired at 515 nm.” left out

FOCUS = assay: NCI-60 sulforhodamine B (SRB) cytotoxicity assay, FOCUS; details: Homo sapiens; SRB, 72 h, 2.5–40 μM, triplicate; read-out: IC50 FOCUS
Description: as §1, §2
as §3, with “The absorbency values were acquired at 515 nm.” left out

SNU475 = assay: NCI-60 sulforhodamine B (SRB) cytotoxicity assay, SNU475; details: Homo sapiens, SNU-475; SRB, 72 h, 2.5–40 μM, triplicate; read-out: IC50 SNU475
Description: as §1, §2
as §3, with “The absorbency values were acquired at 515 nm.” left out

[1] = system: dental pulp stem cells (DPSC); assay: NCI-60 sulforhodamine B (SRB) cytotoxicity assay, dental pulp stem cells; details: Homo sapiens; SRB, 72 h, 2.5–40 μM, triplicate; untransformed control cells; read-out: IC50 DPSC
Description: as §1
Dental pulp stem cells (DPSCs) were isolated from anonymised unidentified healthy intact wisdom tooth. DPSCs were isolated within few hours upon wisdom teeth surgery from patients above 18 years old. All were informed about the procedures, and their consents were obtained. Teeth were broken carefully in order to reach the dental pulp area. […] Then, the cells were seeded onto flasks in 10ml DMEM-F12 media (Lonza) supplemented with 1% penicillin/streptomycin solution (Hyclone) and 15% FBS (Fetal Bovine Serum,Hyclone, Logan, UT, USA) and cultured in a 5% CO2 incubator at 37^∘C .
as §3, with “The absorbency values were acquired at 515 nm.” left out

Mahlavu and Huh7 cells = assay: Cell cycle analysis (propidium iodide); details: Mahlavu and Huh7, IC50 concentrations, 72 h
Description: Human liver cancer cells Mahlavu and Huh7 were treated with the compounds according to the IC50 values obtained from RT-CES experiments or DMSO controls for 72hr. […] We further assessed the effects of the selected chalcones 1, 9, and 11 on the cell cycle progression analysis of liver cancer cells. Human liver cancer cells Mahlavu and Huh7 were treated with the compounds according to the IC50 values obtained from RT-CES for 72 h. Then the DNA in the treated cells were stained with propidium iodide and analyzed with fluorescent-activated cell sorter. […] In order to confirm the induction of apoptosis in human liver cancer cells treated with the chalcones, cleavage of PARP protein (marker of apoptosis) was investigated.
Figure 3 Cell death induced by the chalcones. (A) Nuclear staining of the liver cancer cells treated with the chalcones. Human liver cancer cells (Huh7 and Mahlavu) were treated with the IC50 concentrations of the chalcones 1, 9, 11. After 72 h of incubation with the compounds or DMSO control, Hoechst (33258) staining was performed. Images were taken with fluorescent microscope (×40). Due to the strong cytotoxic activities of the chalcones the number of the cells in objective area was much less than DMSO controls. (B) Cell cycle distribution of liver cancer cells. Huh7 and Mahlavu cells were treated for 72 h with IC50 concentrations of the compounds or DMSO control. SubG1 cell cycle arrest was observed upon treatment with the compounds (blue). (C) Investigation of PARP cleavage in Huh7 and Mahlavu cells treated with the selected chalcones for 24 h.
Then samples were stained with propidium iodide which binds to DNA and analyzed with MUSE® Cell Cycle Assay Kit (EMD Milipore).

[2] = Huh-7, SRB, 72 h, 2.5–40 μM, triplicate

Structure (SMILES) | IC50 (Huh7; [2]) [µM] | IC50 (HepG2) [µM] | IC50 (Hep3B) [µM] | IC50 (Mahlavu) [µM] | IC50 (FOCUS) [µM] | IC50 (SNU475) [µM] | IC50 [1] [µM] | cell cycle progression (Mahlavu and Huh7 cells) | IC50 (Huh7; Huh-7, 72 h) [µM]
COc1ccc(C(=O)/C=C/c2cccc([N+](=O)[O-])c2)cc1 [compound 1] | < 2.5 | 4.2 | 6.2 | < 2.5 | 4.9 | 3 | > 40 | induced SubG1 cell cycle arrest | 
O=C(/C=C/c1ccccc1)c1ccccc1 [compound 9] |  | 7.3 | 7.3 | 6.3 | 3.3 | 5 | 25.7 | induced SubG1 cell cycle arrest | 5.3
O=C(/C=C/c1ccc(Cl)cc1)c1ccccc1 [compound 11] | 4.3 | 6.5 | 5.9 | 5.3 | 3.1 | 9 | 19.1 | induced SubG1 cell cycle arrest | 
